# “Also recorded” adds a separate entry of the source.
# System: prenatal Cynomolgus monkey brains (frontal cortex)
# [1] = Group 2, 20 mg/kg im + 20-50 mg/kg/hr, 5 fetal brains examined
structure (smiles),measurement,setting,value
CNC1(c2ccccc2Cl)CCCCC1=O (centres unmarked) [ketamine],"Severity scoring of neuroapoptotic lesions, Activated caspase 3",[1],3.5 ± 0.7
same,"Severity scoring of neuroapoptotic lesions, HE",[1],1.9 ± 1.2
same,"Severity scoring of neuroapoptotic lesions, Silver",[1],2.0 ± 0.8
same,"Severity scoring of neuroapoptotic lesions, TUNEL",[1],2.9 ± 1.1
same,neuroapoptotic lesions / damaged and apoptotic cells in fetal frontal cortex,"Group 2: 20 mg/kg IM+20-50 mg/kg/hr ketamine to pregnant monkeys, H&E, silver, TUNEL, AC3",abundant neuroapoptotic lesions; also recorded: moderate to large number of damaged and apoptotic cells; also recorded: marked neuroapoptosis and cellular damage with necrosis

# Reference: patent US20130096170A1 (priority 2011, published 2013)
